Experimental data from patent EP1101492A1, “NOVEL REMEDIES FOR ALLERGIC DISEASES” (FUJI YAKUHIN KOGYO KABUSHIKI KAISHA, priority 1998, dated 2000).

Experiments:
[1] = test system: allergic peritonitis; assay: Allergic peritonitis induced with ragweed pollen extract (peritoneal exudate cells); assay type: in vivo, Balb/c mice; conditions: ragweed pollen extract challenge; 30 mg/kg i.p. 5 minutes prior to induction, 3, 6 and 12 hours post-induction; 24 hours after induction
Procedure: Each efficacy on allergic peritonitis was examined according to methods as disclosed in Ouchi et al., "Seibutsu Yakukagaku Jikken Koza, Ensho To Allergy (Inflammation and Allergy) I-3", pp.139 to 151, Hirokawa Publishing Co., Japan and Spicer et al., The International Archives of Allergy and Applied Immunology, 81: 81 to 84, 1986.
A ragweed (Ambrosia artemisiaefolia) pollen extract (1:100, Torii Pharmaceutical Co., Ltd.) was diluted 10-fold with physiological saline and administered subcutaneously to male Balb/c mice (7 weeks old, 20 to 23 g, purchased from JAPAN SLC, Inc.) on Days 0 and 1 at a single dose of 0.1 mL and further on Days 6, 8 and 14 at a single dose of 0.2 mL for sensitization. On Day 20 after the initial sensitization, an antigen solution for induction (a mixture of the aforementioned 10-fold diluted ragweed pollen extract, 50 units/mL of penicillin G potassium, and 0.05 mg/mL of streptomycin sulfate) was administered intraperitoneally to each animal at a dose of 0.2 mL to raise allergic peritonitis. […]
Twenty four hours after induction, mice were sacrificed under ether […] and each penitoneal cavity was lavaged twice or thrice with a washout medium (total volume: 5 mL, physiological saline containing 10 units/mL of heparin). […] The retrieved washout medium was measured for its yield (mL) and the number of exudate cells therein by using Turk solution and counting on a haemocytometer and a total number of PEC was calculated. […] After staining, PEC was subjected to fractional counts under a microscope with classification into eosinophils, neutrophils, lymphocytes/macrophages and basophils based on their form and stain nature (more than 500 PEC per specimen were randomly counted). […] After counting, intraperitoneal exudation inhibition rates were calculated by the following formula and expressed as the therapeutic efficacies: Inhibition Rate (%) =[1 -((PEC in Sensitized/Drug-Treated Mouse) - (PEC in Unsensitized/Saline-Treated Mouse))/((PEC in Sensitized/Saline-Treated Mouse) - (PEC in Unsensitized/Saline-Treated Mouse))]× 100 [formula]

[2] = test system: allergic inflammation models (air pouch models); assay: Allergic inflammation model (air pouch model): leukocyte infiltration; assay type: in vivo, rats; conditions: 10 mg/kg or 30 mg/kg, into the air pouch at the second challenge or systemically 30 minutes prior; exudate 8 hours after second challenge; dexamethasone 0.1 mg/kg as comparison
Procedure: Compound No. 130 was dissolved in physiological saline to make the final concentration 2.5 mg/mL (equal to 10 mg/kg) or 7.5 mg/mL (equal to 30 mg/kg) and administered into an air pouch of animals or intraperitoneally at a dose of 4 mL/kg. Dexamethasone was also dissolved in physiological saline to make the final concentration 25 µg/mL (equal to 0.1 mg/kg) and administered into an air pouch of animals at a dose of 4 mL/kg. Administration into such an air pouch was conducted simultaneously with the second challenge while the intraperitoneal administration was 30 minutes prior to the second challenge. Acetylated bovine serum albumin diazo-coupled with arsanilic acid (ABA-AcBSA) was prepared according to the Ouchi et al. and Tabachnick et al. methods as disclosed in Ouchi et al., "Seibutsu Yakukagaku Jikken Koza, Ensho To Allergy (Inflammation and Allergy) I-2", pp.194 to 206, Hirokawa Publishing Co., Japan and Tabachnick et al., The Journal of Biological Chemistry, 234: 1726- 1730, 1959, and mixed with a Freund's complete adjuvant (Difco) at an equal ratio. The mixture was treated using a connection-type glass syringe to form an emulsion which was used as a sensitizing solution. […] The retrieved exudates were measured by a dye-exclusion method using a haematocytometer and the number of exudated leukocytes were counted.

[3] = Body weight gain in mice; conditions: test compounds 60 mg/kg s.c., prednisolone 10 mg/kg i.p., once a day for 6 days (Days 0-5), average ± standard deviation
Procedure: Accordingly, for assessing the side-effect each of the following test compounds an action on body weight gains was examined.
Next the mice were measured for their body weight. Each body weight gain was calculated on Days 5, 7 and 10 post-administration based on the body weight just prior to administration.

CNC(=O)[C@H](Cc1ccc(NC(=N)N)cc1)NC(=O)[C@H](CC(C)C)C(CCCc1ccccc1)C(=O)NO (single isomer, unassigned) [Compound No. 130, N-[4-(N-Hydroxyamino)-2(R)-isobutyl-3(R or S)-(3-phenyltrimethylene)succinyl)-L-4'-guanidophenylalanine-N-methylamide 1 acetate]
decrease in total PEC number [1]: 143.8%
inhibition of infiltration of eosinophils into the peritoneal cavity [1]: 57.2%
inhibition of infiltration of lymphocytes/macrophages into the peritoneal cavity [1]: 219.0%
infiltration of leukocytes into an air pouch (FIG. 14) [2]: significantly inhibited
Body Weight Gain, Observation Day 5 ([3]; non-administered 0.50± 0.23): 0.57± 0.61
Body Weight Gain, Observation Day 7 ([3]; non-administered 0.80± 0.48): 0.77± 0.55
Body Weight Gain, Observation Day 10 ([3]; non-administered 1.07± 0.58): 1.20± 0.26
